# Measurements published in patent US10774082B2, “Quinazoline compound” (Astellas Pharma Inc., priority 2017, dated 2020).
# Read-outs that look alike come from different tables or passages of the source.
# Key:
# [1] = tested on: ERK phosphorylation (Thr 202/Tyr 204) in NCI-H1373 cells; experiment: ERK phosphorylation inhibitory action in NCI-H1373 (Cell ELISA); format: cell-based, Human; details: read-out: IC50 (ERK phosphorylation inhibition)
# Method in brief: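 KRAS G12C NCI-H1373 cells (2×10^4/well) were treated with compound (six points, 1,000–0.3 nM final) for 2 h. Phospho-ERK Thr202/Tyr204 was measured by in-cell ELISA with an IRDye 800CW secondary antibody. IC50 was fitted by sigmoid-Emax regression against DMSO (0%) and 1 μM trametinib (100%).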
# pERK in NCI-H1373 tumor = experiment: Intratumoral pERK inhibitory action in NCI-H1373 tumor of nude mice (TR-FRET); format: in vivo, mouse; details: for inhibition at 3 mg/kg: read-out: pERK inhibition (%); for inhibition at 10 mg/kg / pERK inhibition (%): 10 mg/kg
# Method: Evaluation of Intratumoral pERK Inhibitory Action
# The phosphorylation amount of ERK in tumor sample after administration of test compound was examined by using pERK measurement kit (Advanced ERK phospho-T202/Y204 kit, Cisbio co., Ltd) through a TR-FRET method.
# 2.0 to 5.0×10^6 NCI-H1373 cells were prepared by using a solution in which an equivalent amount of Matrigel (Becton. Dickinson and Company) was added to PBS, were injected subcutaneously in a volume of 100 μL and planted to male nude mice of 4-5 weeks old (CAnN.Cg-Foxn 1 nu/CrlCrlj (nu/nu), Charles River Laboratories Japan, Inc.), and then the male nude mice were used for the test 15 to 26 days later. The test was conducted with three mice in a solvent group and three mice in a test compound administration group, and the test compounds were prepared by using a solvent such that the dosage thereof is as indicated in Table 4. The test compound was administered subcutaneously or orally. For subcutaneous administration, physiological saline supplemented with equimolar hydrochloric acid was used as a solvent. For oral administration, 6% 2-hydroxypropyl-β-cyclodextrin (Sigma-Aldrich Co. LLC) was used as a solvent. Six hours after the administration, a tumor was excised from a cervical dislocated mouse under isoflurane anesthesia, and a part thereof was put into a 2 mL Eppendorf tube and frozen using liquid nitrogen. The tumor sample was stored in a deep freezer at −80° C. until it was subjected to the pERK measurement test.
# 500 μL of lysis buffer 1 (Phospholysis buffer [Cisbio Co., Ltd], Complete EDTA free [Roche Diagnostics K.K.], Phosphatase inhibitor cocktail 2 [Sigma-Aldrich Co. LLC]) and one bead (5 mm YTZ ball [Nikkato Corp.]) was added to the tumor sample, and crushed (frequency 25/s for 3 minutes) by using Tissue Lyser II (QIAGEN GmbH). The whole amount was transferred to a new tube and centrifuged (20,400×g for 10 minutes, 4° C.) by using a micro amount high speed cooling centrifuge so as to obtain a tumor lysate which is a supernatant. Protein quantification of tumor lysate was performed by using a protein quantification kit (Pierce 660 nm Protein Assay Kit [Thermo Fisher Scientific Inc.]), and each sample was diluted by using lysis buffer 2 (Phosphorysis buffer [Cisbio Co., Ltd], Blocking Agent [attached to pERK measurement kit]) such that the amount thereof is to be a final concentration of 0.5 μg/μL.
# Each of p-ERK1/2 Cryptate antibody and p-ERK1/2 d2 antibody (attached to pERK measurement kit) was diluted 20-fold with each detection buffer (attached to pERK measurement kit), and thereby a mixed solution of these two types of antibodies was prepared. A mixed solution of antibody was added to a 384 well plate at a volume of 4 μL/well. Further, tumor lysate diluted to 0.5 μg/μL was added at a volume of 16 μL/well. After standing at room temperature in a wet box for about 17 hours, the fluorescence intensity at 620 nm and 665 nm was measured under the condition of excitation wavelength of 337 nm by using EnVision 2103 Multilabel Reader (PerkinElmer Co., Ltd.).
# [2] = Homo sapiens, NCI-H1373, 2 h, NCI-H1373 cells, cultured for 2 hours, 100% = 1 μM Trametinib
# [3] = Mus musculus, NCI-H1373, po, 6 h, Oral administration, tumor six hours after administration
# [4] = Mus musculus, NCI-H1373, sc, 6 h, Subcutaneous administration, tumor six hours after administration
# [5] = Mus musculus, NCI-H1373, sc, 6 h
# [6] = NCI-H1373 cells, cultured for 2 hours, 100% = 1 μM Trametinib
# [7] = Oral administration, tumor six hours after administration
Structure (SMILES),"IC50 [1, 2]",inhibition at 10 mg/kg (pERK in NCI-H1373 tumor; [3]),other results
"C=CC(=O)N1CC2(CCN(c3nc(OC4CCN(C5CCOCC5)CC4)nc4c(OCC(F)(F)F)c(-c5c(C)ccc6[nH]ncc56)c(C=C)cc34)CC2)C1 (single isomer, unassigned) [Ex 39]",3 nM,43%,
"C=CC(=O)N1CCN(c2nc(OC3CCN(C)CC3)nc3c(F)c(-c4c(C)ccc5[nH]ncc45)c(Cl)cc23)CC1 [Compound C, reference compound]",210 nM,,"inhibition at 30 mg/kg (pERK in NCI-H1373 tumor; Mus musculus, NCI-H1373, sc, 6 h, Subcutaneous administration, 30 mg/kg, tumor six hours after administration): 54%"
C=CC(=O)N1CC2(CCN(c3nc(OC4CCN(C)CC4)nc4c(OCC)c(-c5c(C)ccc6[nH]ncc56)c(C5CC5)cc34)CC2)C1 [Ex 2],4.4 nM,,inhibition at 1 mg/kg (pERK in NCI-H1373 tumor; [4]): 54%
C=CC(=O)N1CC2(CCN(c3nc(OC4CCN(C)CC4)nc4c(OCC(F)F)c(-c5c(C)ccc6[nH]ncc56)c(C5CC5)cc34)CC2)C1 [Ex 3],3.3 nM,,inhibition at 1 mg/kg (pERK in NCI-H1373 tumor; [4]): 57%
C=CC(=O)N1CC2(CCN(c3nc(OC[C@@H]4CCCN4C)nc4c(OCC(F)F)c(-c5c(C)ccc6[nH]ncc56)c(C5CC5)cc34)CC2)C1 [Ex 4],2.9 nM,,inhibition at 1 mg/kg (pERK in NCI-H1373 tumor; [4]): 58%
C=CC(=O)N1CC2(CCN(c3nc(OC4CCN(CC)CC4)nc4c(OCC)c(-c5c(C)ccc6[nH]ncc56)c(C=C)cc34)CC2)C1 [Ex 7],8.8 nM,,"inhibition at 3 mg/kg (pERK in NCI-H1373 tumor; Mus musculus, NCI-H1373, sc, 6 h, Subcutaneous administration, 3 mg/kg, tumor six hours after administration): 59%"
C=CC(=O)N1CC2(CCN(c3nc(OC4CCN(C)CC4)nc4c(OCC)c(-c5c(C)ccc6[nH]ncc56)c(C=C)cc34)CC2)C1 [Ex 24],3.7 nM,,"inhibition at 40 mg/kg (pERK in NCI-H1373 tumor; Mus musculus, NCI-H1373, po, 6 h, Oral administration, 40 mg/kg, tumor six hours after administration): 72%"
C=CC(=O)N1CC2(CCN(c3nc(OC4CCN(CCOC)CC4)nc4c(OCC(F)(F)F)c(-c5c(C)ccc6[nH]ncc56)c(C5CC5)cc34)CC2)C1 [Ex 25],2.5 nM,66%,
C=CC(=O)N1CC2(CCN(c3nc(OC4CCN(CCOC)CC4)nc4c(OCC(F)(F)F)c(-c5c(C)ccc6[nH]ncc56)c(C=C)cc34)CC2)C1 [Ex 26],3.3 nM,50%,
C=CC(=O)N1CC2(CCN(c3nc(OC4CCN(CCCOC)CC4)nc4c(OCC(F)(F)F)c(-c5c(C)ccc6[nH]ncc56)c(C5CC5)cc34)CC2)C1 [Ex 28],3.5 nM,46%,
C=CC(=O)N1CC2(CCN(c3nc(OC4CCN(C5CCOCC5)CC4)nc4c(OCC(F)(F)F)c(-c5c(C)ccc6[nH]ncc56)c(C=C)cc34)CC2)C1 [Ex 30],3.1 nM,56%,
C=CC(=O)N1CC2(CCN(c3nc(OC[C@@H]4CCCN4C)nc4c(OC5CCC5)c(-c5c(C)ccc6[nH]ncc56)c(C=C)cc34)CC2)C1 [Example 15],,,"IC50 ([1]; Homo sapiens, NCI-H1373, 2 h): 11 nM; inhibition at 3 mg/kg (pERK in NCI-H1373 tumor; [5]): 53%"
C=CC(=O)N1CC2(CCN(c3nc(OC[C@@H]4CCCN4C)nc4c(OCC)c(-c5c(C)ccc6[nH]ncc56)c(C=C)cc34)CC2)C1 [Example 16],,,"IC50 ([1]; Homo sapiens, NCI-H1373, 2 h): 9.1 nM; inhibition at 3 mg/kg (pERK in NCI-H1373 tumor; [5]): 51%"
C=CC(=O)N1CC2(CCN(c3nc(OC4CCN(CCOCC)CC4)nc4c(OCC(F)(F)F)c(-c5c(C)ccc6[nH]ncc56)c(C=C)cc34)CC2)C1 [Example 29],4.2 nM,62%,
C=CC(=O)N1CC2(CCN(c3nc(OC4CCN(CCOC)CC4)nc4c(OCC(F)F)c(-c5c(C)ccc6[nH]ncc56)c(C5CC5)cc34)CC2)C1 [Example 32],5.7 nM,55%,
C=CC(=O)N1CC2(CCN(c3nc(OC4CCN(C5COC5)CC4)nc4c(OCC(F)(F)F)c(-c5c(C)ccc6[nH]ncc56)c(C=C)cc34)CC2)C1 [Example 33],4.6 nM,71%,
C=CC(=O)N1CC2(CCN(c3nc(OC4CCN(C5COC5)CC4)nc4c(OCC)c(-c5c(C)ccc6[nH]ncc56)c(C5CC5)cc34)CC2)C1 [Example 34],5.8 nM,54%,
C=CC(=O)N1CC2(CCN(c3nc(OC4CCN(CCOC)CC4)nc4c(OCC(F)(F)F)c(-c5c(C)ccc6[nH]ncc56)c(C5CC5)cc34)CC2)C1 [Example 35],,,"IC50 [1, 6]: 2.5 nM; pERK inhibition (%) (pERK in NCI-H1373 tumor; [7]): 68%"
C=CC(=O)N1CC2(CCN(c3nc(OC4CCN(CCOCC)CC4)nc4c(OCC(F)(F)F)c(-c5c(C)ccc6[nH]ncc56)c(C=C)cc34)CC2)C1 [Example 37],,,"IC50 [1, 6]: 2.5 nM; pERK inhibition (%) (pERK in NCI-H1373 tumor; [7]): 63%"
C=CC(=O)N1CC2(CCN(c3nc(OC4CCN(CC(C)(C)O)CC4)nc4c(OCC(F)(F)F)c(-c5c(C)ccc6[nH]ncc56)c(C=C)cc34)CC2)C1 [Example 40],,,"IC50 [1, 6]: 3.1 nM; pERK inhibition (%) (pERK in NCI-H1373 tumor; [7]): 58%"
C=CC(=O)N1CC2(CCN(c3nc(N4CCN(C)CC4)nc4c(OCC(F)(F)F)c(-c5c(C)ccc6[nH]ncc56)c(C=C)cc34)CC2)C1 [Example 50],6.4 nM,63%,
C=CC(=O)N1CC2(CCN(c3nc(OC4CCN(C)CC4F)nc4c(OCC(F)(F)F)c(-c5c(C)ccc6[nH]ncc56)c(C=C)cc34)CC2)C1 (stereo not drawn) [Example 52],6.7 nM,68%,
C=CC(=O)N1CC2(CCN(c3nc(OC4CCN(Cc5ccccn5)CC4)nc4c(OCC(F)(F)F)c(-c5c(C)ccc6[nH]ncc56)c(C=C)cc34)CC2)C1 [Example 56],7.7 nM,53%,
C=CC(=O)N1CC2(CCN(c3nc(N4CC(N(C)C)C4)nc4c(OCC(F)(F)F)c(-c5c(C)ccc6[nH]ncc56)c(C=C)cc34)CC2)C1 [Example 65],9.3 nM,68%,
